Results published in patent US11993609B2, “Compositions and methods for oral delivery of crystalline PRX-3140 potassium salt” (Nanopharmaceutics, Inc., priority 2022, dated 2024).
Entries after “also recorded” stand apart in the source; their conditions may differ. Where two headings read alike, the source gives them in different places.

Tests used:
[1] = test system: all other 5-HT receptors tested; assay: radioligand binding, other 5-HT receptors (selectivity); settings: vs 5-HT4R affinity
From the text: (§1) The specific ligand binding to the receptors is defined as the difference between the total binding and the nonspecific binding determined in the presence of an excess of unlabelled ligand.

Sigma-1 receptor = Sigma-1 receptor (Homo sapiens, UniProt Q99720); assay: Sigma-1 radioligand binding assays
Chain of Sigma-1 receptor (Q99720 whole entry): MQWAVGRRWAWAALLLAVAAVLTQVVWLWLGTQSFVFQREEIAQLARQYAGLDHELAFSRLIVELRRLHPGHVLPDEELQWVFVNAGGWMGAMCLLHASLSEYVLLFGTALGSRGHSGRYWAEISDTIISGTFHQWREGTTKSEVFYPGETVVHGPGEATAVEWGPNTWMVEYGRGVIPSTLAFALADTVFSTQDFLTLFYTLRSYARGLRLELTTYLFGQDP
From the text: as §1

Sigma-2 receptor = Sigma-2 receptor (Homo sapiens, UniProt Q5BJF2); assay: Sigma-2 radioligand binding assays
Chain of Sigma-2 receptor (Q5BJF2 whole entry): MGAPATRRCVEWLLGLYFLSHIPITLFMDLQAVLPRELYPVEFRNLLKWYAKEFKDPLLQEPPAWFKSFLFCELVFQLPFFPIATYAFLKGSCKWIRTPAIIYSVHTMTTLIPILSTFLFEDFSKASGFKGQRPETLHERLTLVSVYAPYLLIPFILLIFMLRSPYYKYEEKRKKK
From the text: as §1

[2] = test system: more than 50 other receptors tested including GPCRs, ion channels and receptor tyrosine kinases; assay: binding panel of other receptors
From the text: as §1

[3] = brain/serum partition after oral administration in preclinical studies; settings: in vivo
From the text: (§2) PRX-3140 is being developed for Alzheimer's disease (AD) and other dementias affecting the cholinergic and/or serotonergic systems including post-traumatic stress disorder (PTSD). Extensive non-clinical studies have been completed including in vitro and in vivo pharmacology, safety pharmacology, genotoxicity as well as single and repeat dose toxicology studies in two species, rat and beagle dog.

[4] = early-stage clinical studies (safety, tolerability, pharmacokinetics); format: in vivo
From the text: as §2

[5] = test system: distal gastrointestinal motility; assay: distal gastrointestinal motility; settings: in vivo
From the text: as §2

[6] = photostability study (ICH Q1B), HPLC; format: physicochemical
Experimental: Two samples of crystalline fine particle Form I of PRX-3140 potassium salt were prepared for photostability testing: (1) 1.5 grams spread evenly across a glass Petri dish and covered with a transparent quartz cover and (2) 1.5 grams spread evenly across a glass Petri dish and covered with aluminum foil. […] Samples were exposed for 2 days and tested using HPLC […] […] Changes were evident for crystalline fine particle Form I of PRX-3140 potassium salt after exposure to UVA and white light. The sample changed color particularly on the upper exposed surface of the material and there were changes apparent in the HPLC data. […] The single impurity profile met the specification (<0.2%) but significant changes were observed. […] Other changes included a change in appearance of the material to a sticky solid and an increase in water content to 4.3% w/w.

[7] = forced degradation study (acid, base, 3% hydrogen peroxide), LC-UV-MS; format: physicochemical
Experimental: Crystalline fine particle Form I of PRX-3140 potassium salt was subjected to a forced degradation study using acid, base, or hydrogen peroxide exposure for 24 hours. Samples were neutralized and analyzed using LC-UV-MS. [table] Sample Preparation: […] One mL of stock was added to four, 4 mL vials. […] After storage, the samples of acid and base were neutralized by addition of 1 mL their counter solution. […] Samples were analyzed using LC-UV-MS. Table 5 lists a comparison for the control, acid, base, and peroxide samples showing percent peak area versus relative retention time (RRT) at 250 nm. While some minor changes can be noted between the control with the acid and base samples, the overall purity (peak area) of the parent molecule is just slightly higher for the acid and base sample. Some of the minor impurities appear to be reacting with the acid or base, potentially reforming to the parent.

[8] = 30% peroxide degradation study, LC/UV/MS; format: physicochemical; settings: 18-hour exposure to 30% hydrogen peroxide, HPLC 250 nm
[9] = test system: distal gastrointestinal motility; settings: gastrointestinally active 5-HT4 agonists, comparison; cited from earlier work
[10] = Control (covered with aluminum foil), potassium salt
[11] = Exposed Sample (ICH Q1B light, 2 days), potassium salt
[12] = Acid (1N HCl, 24 hours), 250 nm
[13] = Base (1N NaOH, 24 hours), 250 nm
[14] = Control (DI water, 24 hours), 250 nm

CC(C)n1c(=O)c(C(=O)NCCCN2CCCCC2)c([O-])c2ccsc21.[K+] [PRX-3140 potassium salt, 6,7-Dihydro-4-hydroxy-7-isopropyl-6-oxo-N-(3-(piperidin-1-yl)propyl)thieno[2,3-b]pyridine-5-carboxamide potassium salt]
difference in affinities compared with all other 5-HT receptors tested [1]: more than 100 fold
Ki (Sigma-1 receptor): 79 to 100 nM
Ki (Sigma-2 receptor): 99 to 160 nM
affinity for other receptors [2]: no significant affinity
CNS penetration [3]: high CNS penetration
oral bioavailability [4]: high oral bioavailability
distal gastrointestinal motility [5]: without inducing significant distal gastrointestinal motility
Unknown (RRT 0.55) ([6]; Control): 0.01%
Unknown (RRT 0.74) ([6]; Control): 0.01%
Unknown (RRT 0.75) ([6]; Control): 0.01%
Unknown (RRT 0.87) ([6]; Control): 0.09%
Unknown (RRT 0.95) ([6]; Control): 0.04%
Unknown (RRT 0.98) ([6]; Control): 0.01%
Unknown (RRT 1.07) ([6]; Control): 0.01%
Unknown (RRT 1.12) ([6]; Control): 0.01%
Unknown (RRT 1.22) ([6]; Control): 0.01%
Appearance ([6]; Control (covered with aluminum foil)): Pinkish solid
Total impurities [6, 10]: 0.20%
Water Content - KF [6, 10]: 3.1 % w/w
Unknown (RRT 0.55) ([6]; Exposed Sample): 0.01%
Unknown (RRT 0.74) ([6]; Exposed Sample): 0.02%
Unknown (RRT 0.75) ([6]; Exposed Sample): 0.01%
Unknown (RRT 0.86) ([6]; Exposed Sample): 0.01%
Unknown (RRT 0.87) ([6]; Exposed Sample): 0.10%
Unknown (RRT 0.90) ([6]; Exposed Sample): 0.01%
Unknown (RRT 0.91) ([6]; Exposed Sample): 0.01%
Unknown (RRT 0.95) ([6]; Exposed Sample): 0.05%
Unknown (RRT 0.98) ([6]; Exposed Sample): 0.04%
Unknown (RRT 1.07) ([6]; Exposed Sample): 0.06%
Unknown (RRT 1.12) ([6]; Exposed Sample): 0.02%
Unknown (RRT 1.22) ([6]; Exposed Sample): 0.01%
Unknown (RRT 1.50) ([6]; Exposed Sample): 0.02%
Unknown (RRT 1.54) ([6]; Exposed Sample): 0.01%
Unknown (RRT 1.57) ([6]; Exposed Sample): 0.01%
Unknown (RRT 1.63) ([6]; Exposed Sample): 0.05%
Unknown (RRT 1.75) ([6]; Exposed Sample): 0.04%
Unknown (RRT 1.76) ([6]; Exposed Sample): 0.03%
Unknown (RRT 1.79) ([6]; Exposed Sample): 0.01%
Unknown (RRT 2.06) ([6]; Exposed Sample): 0.01%
Unknown (RRT 2.08) ([6]; Exposed Sample): 0.01%
Unknown (RRT 2.16) ([6]; Exposed Sample): 0.01%
Appearance [6, 11]: sticky solid; also recorded: Orange
Total impurities [6, 11]: 0.77%
Water Content - KF [6, 11]: 4.3 % w/w
Unknown (RRT 1.72) ([6]; Exposed Sample, first RRT 1.72 line (r24)): 0.04%
Unknown (RRT 1.83) ([6]; Exposed Sample, potassium salt): 0.16%
Unknown (RRT 1.72) ([6]; Exposed Sample, second RRT 1.72 line (r25)): 0.02%
assay value ([6]; illuminated photostability sample): 94.2 % w/w
Appearance ([6]; t = 0): Light brown solid
Total impurities ([6]; t = 0): 0.22%
Unknown (RRT 0.55) ([6]; t = 0): 0.01%
Unknown (RRT 0.74) ([6]; t = 0): 0.01%
Unknown (RRT 0.75) ([6]; t = 0): 0.01%
Unknown (RRT 0.87) ([6]; t = 0): 0.09%
Unknown (RRT 0.95) ([6]; t = 0): 0.05%
Unknown (RRT 0.98) ([6]; t = 0): 0.01%
Unknown (RRT 1.12) ([6]; t = 0): 0.01%
Unknown (RRT 1.22) ([6]; t = 0): 0.01%
Unknown (RRT 2.01) ([6]; t = 0): 0.01%
Unknown (RRT 2.16) ([6]; t = 0): 0.01%
Unknown (RRT 2.38) ([6]; t = 0): 0.01%
Water Content - KF ([6]; t = 0, potassium salt): 0.9 % w/w
effect of acid on the compound ([7]; 1 N HCl for 24 hours): very little effect
effect of base on the compound ([7]; 1 N NaOH for 24 hours): very little effect
percent peak area, RRT 0.99 [7, 12]: 0.07%
percent peak area, RRT 1.05 (PRX-3140b) [7, 12]: <0.03%
percent peak area, RRT 1.08 [7, 12]: 0.11%
percent peak area, RRT 1.11 [7, 12]: 0.04%
percent peak area, RRT 1.27 [7, 12]: 0.04%
percent peak area, RRT 1.34 [7, 12]: 0.15%
percent peak area, RRT 1.53 [7, 12]: 0.43%
percent peak area, RRT 1.79 [7, 12]: 0.04%
percent peak area, RRT 2.51 [7, 12]: 0.06%
percent peak area, RRT 2.70 [7, 12]: 0.13%
percent peak area, RRT 1.00 (parent molecule, purity) ([7]; Acid (1N HCl, 24 hours), 250 nm, listed as PRX-3140 Potassium Salt, potassium salt): 98.94%
percent peak area, RRT 1.00 (parent molecule, purity) ([7]; Acid (1N HCl, 24 hours), 250 nm, potassium salt): 98.9%
percent peak area, RRT 0.94 [7, 13]: 0.28%
percent peak area, RRT 1.05 (PRX-3140b) [7, 13]: <0.03%
percent peak area, RRT 1.08 [7, 13]: 0.12%
percent peak area, RRT 1.34 [7, 13]: 0.16%
percent peak area, RRT 1.53 [7, 13]: 0.42%
percent peak area, RRT 1.79 [7, 13]: 0.05%
percent peak area, RRT 2.51 [7, 13]: 0.05%
percent peak area, RRT 2.70 [7, 13]: 0.12%
percent peak area, RRT 1.00 (parent molecule, purity) ([7]; Base (1N NaOH, 24 hours), 250 nm, listed as PRX-3140 Potassium Salt, potassium salt): 98.71%
percent peak area, RRT 1.00 (parent molecule, purity) ([7]; Base (1N NaOH, 24 hours), 250 nm, potassium salt): 98.7%
percent peak area, RRT 1.05 (PRX-3140b) [7, 14]: <0.03%
percent peak area, RRT 1.08 [7, 14]: 0.12%
percent peak area, RRT 1.11 [7, 14]: 0.04%
percent peak area, RRT 1.34 [7, 14]: 0.17%
percent peak area, RRT 1.53 [7, 14]: 0.42%
percent peak area, RRT 1.71 [7, 14]: 0.23%
percent peak area, RRT 1.79 [7, 14]: 0.11%
percent peak area, RRT 1.93 [7, 14]: 0.06%
percent peak area, RRT 2.51 [7, 14]: 0.06%
percent peak area, RRT 2.70 [7, 14]: 0.18%
percent peak area, RRT 1.00 (parent molecule, purity) ([7]; Control (DI water, 24 hours), 250 nm, listed as PRX-3140, potassium salt): 98.6%
percent peak area, RRT 1.00 (parent molecule, purity) ([7]; Control (DI water, 24 hours), 250 nm, listed as PRX-3140 Potassium Salt, potassium salt): 98.60%
percent peak area, RRT 1.00 (parent molecule, purity) ([7]; Control (DI water, 24 hours), 250 nm, potassium salt): 98.6%
percent peak area, RRT 0.78 (PRX-3140a) ([7]; H2O2 (3%, 24 hours), 250 nm): 8.49%
percent peak area, RRT 0.82 ([7]; H2O2 (3%, 24 hours), 250 nm): 0.10%
percent peak area, RRT 1.05 (PRX-3140b) ([7]; H2O2 (3%, 24 hours), 250 nm): 9.06%
percent peak area, RRT 1.08 ([7]; H2O2 (3%, 24 hours), 250 nm): 0.19%
percent peak area, RRT 1.27 ([7]; H2O2 (3%, 24 hours), 250 nm): 0.21%
percent peak area, RRT 1.34 ([7]; H2O2 (3%, 24 hours), 250 nm): 0.09%
percent peak area, RRT 1.42 ([7]; H2O2 (3%, 24 hours), 250 nm): 0.32%
percent peak area, RRT 1.53 ([7]; H2O2 (3%, 24 hours), 250 nm): 0.42%
percent peak area, RRT 1.79 ([7]; H2O2 (3%, 24 hours), 250 nm): 0.19%
percent peak area, RRT 2.70 ([7]; H2O2 (3%, 24 hours), 250 nm): 0.11%
percent peak area, RRT 1.00 (parent molecule, purity) ([7]; H2O2 (3%, 24 hours), 250 nm, listed as PRX-3140, potassium salt): 80.6%
percent peak area, RRT 1.00 (parent molecule, purity) ([7]; H2O2 (3%, 24 hours), 250 nm, listed as PRX-3140 Potassium Salt, potassium salt): 80.57%
percent peak area, RRT 1.00 (parent molecule, purity) ([7]; H2O2 (3%, 24 hours), 250 nm, potassium salt): 80.6%
purity of the parent molecule [8]: 29.6%

COc1cc(N)c(Cl)cc1C(=O)NC1CCN(CCCOc2ccc(F)cc2)CC1OC (centres unmarked) [cisapride]
distal gastrointestinal motility [9]: significant distal gastrointestinal motility observed

CCCCCNC(=N)N/N=C/c1c[nH]c2ccc(OC)cc12 [tegaserod]
distal gastrointestinal motility [9]: significant distal gastrointestinal motility observed

[7-(methylethyl)1,4,6-trioxo(5,7-dihydrothiopheno[2,3-b]pyridine-5-yl)]-N-(3-piperidylpropyl)carboxamide [PRX-3140b]
percent peak area, RRT 1.05 (PRX-3140b) [7, 12]: < 0.03%
percent peak area, RRT 1.05 (PRX-3140b) [7, 13]: < 0.03%
percent peak area, RRT 1.05 (PRX-3140b) [7, 14]: < 0.03%
percent peak area, RRT 1.05 (PRX-3140b) ([7]; H2O2 (3%, 24 hours), 250 nm): 9.1%
